Experimental data from patent US11976280B2, “SMAC/Diablo inhibitors useful for treating cancer” (THE NATIONAL INSTITUTE FOR BIOTECHNOLOGY IN THE NEGEV LTD., priority 2017, dated 2024).
Non-standard residues stand in square brackets, D forms with d. No end group written: not given here. Dmt = Cc1cc(O)cc(C)c1C[C@H](N)C(=O)O; Orn = NCCC[C@H](N)C(=O)O; d = 2'-deoxy (DNA); m = 2'-O-methyl; r = 2'-OH (RNA)

How the values were obtained:
A549 cells [1] = assay: SRB cell growth assay, si-hSMAC B-D and 2′-O-Me modified siRNAs; assay type: cell-based, human; conditions: 30 and 50 nM
Procedure: The siRNAs were synthesized by Genepharma (Suzhou, China). Cells were seeded (150,000 cells/well) on 6-well culture dishes to 40-60% confluence and transfected with 10-100 nM si-NT or si-hSMAC/Diablo using the JetPRIME transfection reagent (Illkirch, France), according to the manufacturers' instructions.
Twenty-four hours post-transfection with si-NT or si-hSMAC, cells (10,000/well) were counted and seeded in 96-well plates. After additional 48, 72 or 96 hours, the cells were washed with PBS, fixed with 10% trichloroacetic acid, and stained with SRB. SRB was extracted from the cells using 100 mM Tris base and absorbance at 510 nm was determined using an Infinite M1000 plate reader (Tecan, Männedorf, Switzerland).
si-hSMAC-A and si-hSMAC-B were modified by 2′-O methylation (2′-O Me) to form si-hSMAC-A1, si-hSMAC-A2 si-hSMAC-A3 si-hSMAC-A4 si-hSMAC-B1 si-hSMAC-B2 si-hSMAC-B3 and si-hSMAC-B4 described hereinabove. The effect of these modified forms on SMAC/Diablo expression and on cell proliferation was examined using 30 and 50 nM of each inhibitory RNA molecule in the lung cancer line A549.

A549 cells [2] = assay: SRB cell growth of A549 cells treated with peptide conjugates (Table 8); assay type: cell-based, human; conditions: 48 h in serum (10%) medium or 24 h serum-free, mean±SD (n=3)
Procedure: A549 cells were seeded in 96-well plate (5000 cells/well). After 24 h cells were incubated with each of the examined peptides at a concentration of 5, 10, or 30 μM for 48 h in a serum (10%) containing medium or for 24 h in a serum-free medium. Then, cells were washed with PBS, fixed with 10% trichloroacetic acid, and analyzed for cell growth using the SRB method described herein above. Cell growth with no addition of a peptide was taken as a control (100% cell growth). Table 8 presents the cell growth in the presence of the peptide as % of control. Results are the mean±SD (n=3).

SMAC/Diablo = target: T1, SMAC/Diablo (Homo sapiens, UniProt Q9NR28); assay: Peptide array after pre-incubation of SMAC/Diablo with free peptide; assay type: binding; conditions: for SMAC/Diablo interaction with the corresponding array-bound peptide: SMAC 0.8 μM pre-incubated with free peptide 2.4 μM
T1 sequence (Q9NR28 22-239): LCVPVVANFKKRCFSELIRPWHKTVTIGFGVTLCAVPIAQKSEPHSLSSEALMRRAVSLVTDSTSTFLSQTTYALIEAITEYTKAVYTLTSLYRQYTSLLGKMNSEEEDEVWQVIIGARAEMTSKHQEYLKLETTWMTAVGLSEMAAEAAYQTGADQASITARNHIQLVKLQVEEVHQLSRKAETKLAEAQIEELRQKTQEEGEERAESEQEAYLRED
Procedure: The glass-bound peptide array described hereinabove was used. SMAC/Diablo (0.8 μM) was incubated with each of the peptides—2C18 (2.4 μM) and 1G12 (2.4 μM) for 2 hr at 24° C. and then incubated with the peptide array for 4 h at 4° C. Then the slides were washed and SMAC/Diablo antibodies (1:2000) were added, followed by incubation with HRP-conjugated anti-mouse IgG after which chemiluminescent spots were detected. Corresponding glass-bound peptide array incubated overnight with 0.8 μM free SMAC/Diablo, blotted with the same concentration of SMAC/Diablo antibodies followed by incubation with HRP-conjugated anti-mouse IgG served as a control. […] This is indicated by the decreased intensity or disappearance of chemiluminescence in the peptide spot position compared to the control (FIG. 16 and FIG. 17, respectively). Moreover, pre-incubation of SMAC/Diablo with peptide 2C18 decreased SMAC/Diablo interaction with the array-bound peptides 1M17 and 1N23 derived from Nuclear receptor subfamily 4 group A member 1 Protein (NR4A1) and peptide 1K20 derived from TNF receptor associated factor 2 Protein (TRAF2) (FIG. 16B, eliminated spots are circled).

[3] = pre-incubation with free peptide 2.4 μM

| Substance | reducing cell proliferation, ranking among modified molecules (A549 cells [1]) | Cell growth, % of control (A549 cells [2]; peptide 5 μM) | Cell growth, % of control (A549 cells [2]; peptide 10 μM) | Cell growth, % of control (A549 cells [2]; peptide 30 μM) | other results |
| --- | --- | --- | --- | --- | --- |
| si-hSMAC-A4: si-hSMAC-A with 2′-O-Me at sense positions 3, 6, 11, 21 (SEQ ID NO:34) and antisense 6, 19 (SEQ ID NO:35) (sense AAGCGGUGUUUCUCAGAAUUGTT; antisense AACAAUUCUGAGAAACCCGCTT; sense: sugars from the 5' end rrmrrmrrrrmrrrrrrrrrmdd, backbone not given here; antisense: sugars from the 5' end rrrrrmrrrrrrrrrrrrmrdd, backbone not given here) | most active in reducing cell proliferation |  |  |  |  |
| TF-1G12: peptide conjugate targeted to cytosol, SEQ ID NO:76 (HAIYPRLIRKNRMALFQQLTCVLPILDNLLK; not fully specified) |  | 99 ± 0.004 % of control | 98 ± 0.005 % of control | 99 ± 0.005 % of control |  |
| VRFITKIWHPNISSVTGAICLDILK [2C18] |  |  |  |  | SMAC/Diablo interaction with the corresponding array-bound peptide (SMAC/Diablo): significantly decreased or even prevented; SMAC/Diablo interaction with array-bound peptides 1M17, 1N23 (NR4A1) and 1K20 (TRAF2) (SMAC/Diablo; [3]): decreased |
| si-hSMAC-B2: si-hSMAC-B with 2′-O-Me at sense positions 4, 9, 13, 17 (SEQ ID NO:38) and antisense 6, 12, 18 (SEQ ID NO:39) (sense GCAGAUCAGGCCUCUAUAATT; antisense UUAUAGAGGCCUGAUCUGCTT; sense: sugars from the 5' end rrrmrrrrmrrrmrrrmrrdd, backbone not given here; antisense: sugars from the 5' end rrrrrmrrrrrmrrrrrmrdd, backbone not given here) | most active |  |  |  |  |
| si-hSMAC-A1: si-hSMAC-A with 2′-O-Me at sense positions 5, 10, 16, 21 (SEQ ID NO:28) and antisense 6, 12, 19 (SEQ ID NO:29) (sense AAGCGGUGUUUCUCAGAAUUGTT; antisense AACAAUUCUGAGAAACCCGCTT; sense: sugars from the 5' end rrrrmrrrrmrrrrrmrrrrmdd, backbone not given here; antisense: sugars from the 5' end rrrrrmrrrrrmrrrrrrmrdd, backbone not given here) | most active in reducing cell proliferation |  |  |  |  |
| si-hSMAC-B3: si-hSMAC-B with 2′-O-Me at sense positions 6, 10, 15 (SEQ ID NO:40) and antisense 2, 9, 17 (SEQ ID NO:41) (sense GCAGAUCAGGCCUCUAUAATT; antisense UUAUAGAGGCCUGAUCUGCTT; sense: sugars from the 5' end rrrrrmrrrmrrrrmrrrrdd, backbone not given here; antisense: sugars from the 5' end rmrrrrrrmrrrrrrrmrrdd, backbone not given here) | most active |  |  |  |  |
| LIRKNRMALFQQLTCVLPILDNLLK [1G12] |  |  |  |  | SMAC/Diablo interaction with the corresponding array-bound peptide (SMAC/Diablo): significantly decreased or even prevented; SMAC/Diablo interaction with array-bound 1G12, 1G13, 1H13 (BIRC5) and 2D9 (MAML2) (SMAC/Diablo; [3]): significantly reduced |
| nuCPP-1G12: peptide conjugate targeted to nucleus, SEQ ID NO:71 (R[dR]RKLIRKNRMALFQQLTCVLPILDNLLK) |  | 96 ± 0.012 % of control | 72 ± 0.01 % of control | 66 ± 0.009 % of control |  |
| 1G12-nuCPP: peptide conjugate targeted to nucleus, SEQ ID NO:70 (LIRKNRMALFQQLTCVLPILDNLLKR[dR]RK) |  | 109 ± 0.013 % of control | 76 ± 0.024 % of control | 39 ± 0.013 % of control |  |
| ANT-2C18 (MRQIKIWFQNRRMKWKVRFITKIWHPNISSVTGAICLDILK) |  | 127 ± 0.006 % of control | 145 ± 0.0162 % of control | 97 ± 0.011 % of control |  |
| 1H13-nuCPP: peptide conjugate targeted to nucleus, SEQ ID NO:69 (SGCAFLSVKKQFEELTLGEFLKLDR[dR]RK) |  | 92 ± 0.018 % of control | 57 ± 0.013 % of control | 30 ± 0.009 % of control |  |
| mtCPP-2C18: peptide conjugate targeted to mitochondria, SEQ ID NO:74 ([dR][Dmt][Orn]FVRFITKIWHPNISSVTGAICLDILK) |  | 89 ± 0.005 % of control | 74 ± 0.004 % of control | 59 ± 0.004 % of control |  |
| 1H13-mtCPP-NH2: peptide conjugate targeted to mitochondria, SEQ ID NO:73 (SGCAFLSVKKQFEELTLGEFLKLD[dR][Dmt][Orn]F-NH2) |  | 85 ± 0.022 % of control | 60 ± 0.018 % of control | 49 ± 0.014 % of control |  |
